The results in this text go back to article PMC9856672, “SGC-CAMKK2-1: A Chemical Probe for CAMKK2” (Cells, 2023).

Assay [1] has as its target T1, FER (Homo sapiens, UniProt P16591).
T1 construct: purchased Eurofins DiscoverX KINOMEscan
Kind of assay: KINOMEscan 1 μM, FER. Format: binding. The conditions noted are these: 1000 nM; Entrez FER; read-out: Percent Control. The source says: (§1) Supplement cells-12-00287-s001.zip/File S2. KinomeScan data for the CAMKK2 probe and negative control.xlsx, sheet "SGC-CAMKK2-1" | column: Percent Control

The target in assay [2] is T2, PIM3 (Homo sapiens, UniProt Q86V86).
T2 construct: purchased Eurofins DiscoverX KINOMEscan
The experiment in a line: KINOMEscan 1 μM, PIM3. Format: binding. The conditions noted are these: 1000 nM; Entrez PIM3; read-out: Percent Control.
Description: as §1

For assay [3], the target named is T3, YSK4 (Homo sapiens, UniProt Q56UN5).
T3 construct: purchased Eurofins DiscoverX KINOMEscan
T3 sequence (Q56UN5 whole entry): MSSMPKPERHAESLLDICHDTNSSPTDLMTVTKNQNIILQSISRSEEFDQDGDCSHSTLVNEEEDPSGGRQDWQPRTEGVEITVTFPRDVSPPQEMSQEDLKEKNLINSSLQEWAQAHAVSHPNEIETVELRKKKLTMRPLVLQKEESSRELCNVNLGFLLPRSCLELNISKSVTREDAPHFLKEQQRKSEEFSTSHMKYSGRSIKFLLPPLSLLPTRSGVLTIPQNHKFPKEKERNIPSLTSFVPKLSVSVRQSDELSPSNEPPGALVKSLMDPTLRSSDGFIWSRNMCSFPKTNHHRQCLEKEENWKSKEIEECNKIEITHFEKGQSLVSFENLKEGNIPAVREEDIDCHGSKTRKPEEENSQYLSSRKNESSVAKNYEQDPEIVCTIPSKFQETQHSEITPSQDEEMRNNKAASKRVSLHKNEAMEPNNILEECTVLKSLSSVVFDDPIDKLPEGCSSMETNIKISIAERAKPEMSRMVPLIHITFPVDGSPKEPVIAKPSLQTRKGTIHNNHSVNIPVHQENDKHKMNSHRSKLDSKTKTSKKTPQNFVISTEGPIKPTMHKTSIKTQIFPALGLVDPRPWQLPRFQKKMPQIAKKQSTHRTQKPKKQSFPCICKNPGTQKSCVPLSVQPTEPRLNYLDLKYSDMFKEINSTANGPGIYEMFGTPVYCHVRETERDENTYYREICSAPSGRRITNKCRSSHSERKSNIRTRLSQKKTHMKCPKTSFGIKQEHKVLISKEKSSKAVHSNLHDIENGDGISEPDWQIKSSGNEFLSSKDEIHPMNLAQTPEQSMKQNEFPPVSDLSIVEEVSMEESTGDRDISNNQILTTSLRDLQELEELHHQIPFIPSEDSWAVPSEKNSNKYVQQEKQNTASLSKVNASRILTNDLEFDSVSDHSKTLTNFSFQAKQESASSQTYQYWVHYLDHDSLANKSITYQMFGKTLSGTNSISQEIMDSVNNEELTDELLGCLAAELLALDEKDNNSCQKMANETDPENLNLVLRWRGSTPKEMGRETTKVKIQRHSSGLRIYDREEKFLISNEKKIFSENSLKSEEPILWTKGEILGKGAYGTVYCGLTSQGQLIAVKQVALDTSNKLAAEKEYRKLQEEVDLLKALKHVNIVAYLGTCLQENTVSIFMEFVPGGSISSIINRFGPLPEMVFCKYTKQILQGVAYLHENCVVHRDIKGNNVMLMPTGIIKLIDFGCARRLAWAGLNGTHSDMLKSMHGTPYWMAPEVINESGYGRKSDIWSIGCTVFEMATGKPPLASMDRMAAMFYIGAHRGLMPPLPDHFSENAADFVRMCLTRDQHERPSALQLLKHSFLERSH
The experiment in a line: KINOMEscan 1 μM, YSK4. In kind it is binding. The following applies: 1000 nM; Entrez MAP3K19; read-out: Percent Control.
Description: as §1

The target in assay [4] is T4, EGFR (Homo sapiens, UniProt P00533).
T4 construct: purchased Eurofins DiscoverX KINOMEscan
The experiment in a line: KINOMEscan 1 μM, EGFR. Format: binding. The conditions noted are these: 1000 nM; Entrez EGFR; read-out: Percent Control.
Description: as §1

Assay [5] deals with T5, CDK9 (Homo sapiens, UniProt P50750).
T5 construct: purchased Eurofins DiscoverX KINOMEscan
Kind of assay: KINOMEscan 1 μM, CDK9. Format: binding. The conditions noted are these: 1000 nM; Entrez CDK9; read-out: Percent Control.
Description: as §1

For assay [6], the target named is T6, CHEK1 (Homo sapiens, UniProt O14757).
T6 construct: purchased Eurofins DiscoverX KINOMEscan
Kind of assay: KINOMEscan 1 μM, CHEK1. The following applies: 1000 nM; Entrez CHEK1; read-out: Percent Control. In kind it is binding.
Description: as §1

For assay [7], the target named is T7, TEC (Homo sapiens, UniProt P42680).
T7 construct: purchased Eurofins DiscoverX KINOMEscan
The experiment in a line: KINOMEscan 1 μM, TEC. In kind it is binding. The conditions noted are these: 1000 nM; Entrez TEC; read-out: Percent Control.
Description: as §1

Assay [8] concerns the target T8, CDKL1 (Homo sapiens, UniProt Q00532).
T8 construct: purchased Eurofins DiscoverX KINOMEscan
Kind of assay: KINOMEscan 1 μM, CDKL1. The conditions noted are these: 1000 nM; Entrez CDKL1; read-out: Percent Control. Format: binding.
Description: as §1

Assay [9] addresses T9, FLT3(R834Q) (Homo sapiens, UniProt P36888, R834Q).
T9 construct: purchased Eurofins DiscoverX KINOMEscan
Kind of assay: KINOMEscan 1 μM, FLT3(R834Q). In kind it is binding. The following applies: 1000 nM; Entrez FLT3; read-out: Percent Control.
Description: as §1

The target in assay [10] is T10, IRAK4 (Homo sapiens, UniProt Q9NWZ3).
T10 construct: purchased Eurofins DiscoverX KINOMEscan
The experiment in a line: KINOMEscan 1 μM, IRAK4. Format: binding. The following applies: 1000 nM; Entrez IRAK4; read-out: Percent Control.
Description: as §1

Assay [11] has as its target T11, JAK2(JH1domain-catalytic) (Homo sapiens, UniProt O60674).
T11 construct: JAK2(JH1domain-catalytic); purchased Eurofins DiscoverX KINOMEscan
Kind of assay: KINOMEscan 1 μM, JAK2(JH1domain-catalytic). The following applies: 1000 nM; Entrez JAK2; read-out: Percent Control. Format: binding.
Description: as §1

Assay [12] concerns the target T12, KIT (Homo sapiens, UniProt P10721).
T12 construct: purchased Eurofins DiscoverX KINOMEscan
Kind of assay: KINOMEscan 1 μM, KIT. Format: binding. The conditions noted are these: 1000 nM; Entrez KIT; read-out: Percent Control.
Description: as §1

Assay [13] has as its target T13, MEK4 (Homo sapiens, UniProt P45985).
T13 construct: purchased Eurofins DiscoverX KINOMEscan
The experiment in a line: KINOMEscan 1 μM, MEK4. In kind it is binding. The conditions noted are these: 1000 nM; Entrez MAP2K4; read-out: Percent Control.
Description: as §1

Assay [14] has as its target T14, MLK1 (Homo sapiens, UniProt P80192).
T14 construct: purchased Eurofins DiscoverX KINOMEscan
The experiment in a line: KINOMEscan 1 μM, MLK1. The conditions noted are these: 1000 nM; Entrez MAP3K9; read-out: Percent Control. Format: binding.
Description: as §1

The target in assay [15] is T15, PIK3CA(E545A) (Homo sapiens, UniProt P42336, E545A).
T15 construct: purchased Eurofins DiscoverX KINOMEscan
Kind of assay: DiscoverX KINOMEscan binding assay at 1 μM, PIK3CA(E545A). The conditions noted are these: Compound Concentration 1000 nM, read-out: Percent Control.
Description: as §1

For assay [16], the target named is T16, PKAC-beta (Homo sapiens, UniProt P22694).
T16 construct: purchased Eurofins DiscoverX KINOMEscan
Kind of assay: DiscoverX KINOMEscan binding assay at 1 μM, PKAC-beta. The conditions noted are these: PKAC-beta (PRKACB); Compound Concentration 1000 nM; read-out: Percent Control.
Description: as §1

The target of assay [17] is T17, RIPK5 (Homo sapiens, UniProt Q6XUX3).
T17 construct: purchased Eurofins DiscoverX KINOMEscan
The experiment in a line: DiscoverX KINOMEscan binding assay at 1 μM, RIPK5. The conditions noted are these: RIPK5 (DSTYK); Compound Concentration 1000 nM; read-out: Percent Control.
Description: as §1

The target in assay [18] is T18, SIK (Homo sapiens, UniProt P57059).
T18 construct: purchased Eurofins DiscoverX KINOMEscan
T18 sequence (P57059 whole entry): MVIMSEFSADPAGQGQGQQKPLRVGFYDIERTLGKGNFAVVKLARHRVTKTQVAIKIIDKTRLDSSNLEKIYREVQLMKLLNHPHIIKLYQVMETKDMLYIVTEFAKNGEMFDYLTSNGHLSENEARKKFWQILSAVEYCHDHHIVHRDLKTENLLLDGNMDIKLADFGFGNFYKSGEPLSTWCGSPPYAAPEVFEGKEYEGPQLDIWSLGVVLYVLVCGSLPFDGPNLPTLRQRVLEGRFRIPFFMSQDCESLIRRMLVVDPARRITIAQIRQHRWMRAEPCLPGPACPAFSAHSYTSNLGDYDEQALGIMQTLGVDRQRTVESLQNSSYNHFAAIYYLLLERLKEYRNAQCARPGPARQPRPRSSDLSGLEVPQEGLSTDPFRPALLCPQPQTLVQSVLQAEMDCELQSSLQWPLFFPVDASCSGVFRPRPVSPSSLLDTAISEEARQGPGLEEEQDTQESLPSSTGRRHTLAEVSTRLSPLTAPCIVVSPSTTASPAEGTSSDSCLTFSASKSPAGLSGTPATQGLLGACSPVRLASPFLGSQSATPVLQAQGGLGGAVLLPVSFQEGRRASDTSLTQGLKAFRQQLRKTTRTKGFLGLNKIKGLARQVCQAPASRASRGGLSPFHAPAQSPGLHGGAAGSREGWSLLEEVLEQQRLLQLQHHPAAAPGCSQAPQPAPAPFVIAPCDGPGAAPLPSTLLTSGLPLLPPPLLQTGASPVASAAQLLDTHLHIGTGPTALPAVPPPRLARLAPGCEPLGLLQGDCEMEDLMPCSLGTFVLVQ
The experiment in a line: DiscoverX KINOMEscan binding assay at 1 μM, SIK. The conditions noted are these: SIK (SIK1); Compound Concentration 1000 nM; read-out: Percent Control.
Description: as §1

The target in assay [19] is T19, TLK2 (Homo sapiens, UniProt Q86UE8).
T19 construct: purchased Eurofins DiscoverX KINOMEscan
The experiment in a line: DiscoverX KINOMEscan binding assay at 1 μM, TLK2. The conditions noted are these: Compound Concentration 1000 nM, read-out: Percent Control.
Description: as §1

The target in assay [20] is T20, WNK1 (Homo sapiens, UniProt Q9H4A3).
T20 construct: purchased Eurofins DiscoverX KINOMEscan
The experiment in a line: DiscoverX KINOMEscan binding assay at 1 μM, WNK1. The conditions noted are these: Compound Concentration 1000 nM, read-out: Percent Control.
Description: as §1

In assay [21] the target is T21, PIK4CB (Homo sapiens, UniProt Q9UBF8).
T21 construct: purchased Eurofins DiscoverX KINOMEscan
The experiment in a line: KINOMEscan at 1 μM, PIK4CB. Format: binding. The conditions noted are these: 1000 nM, read-out: Percent Control. The text has this: (§2) Supplement cells-12-00287-s001.zip/File S2. KinomeScan data for the CAMKK2 probe and negative control.xlsx, sheet "SGC-CAMKK2-1N" | column: Percent Control

The target in assay [22] is T22, ICK (Homo sapiens, UniProt Q9UPZ9).
T22 construct: purchased Eurofins DiscoverX KINOMEscan
The experiment in a line: KINOMEscan at 1 μM, ICK. In kind it is binding. The conditions noted are these: 1000 nM, read-out: Percent Control.
Description: as §2

Assay [23] concerns the target T23, PIK3CA(Q546K) (Homo sapiens, UniProt P42336, Q546K).
T23 construct: purchased Eurofins DiscoverX KINOMEscan
Kind of assay: KINOMEscan at 1 μM, PIK3CA(Q546K). The following applies: 1000 nM, read-out: Percent Control. In kind it is binding.
Description: as §2

Assay [24] has as its target T24, PDGFRA (Homo sapiens, UniProt P16234).
T24 construct: purchased Eurofins DiscoverX KINOMEscan
Kind of assay: KINOMEscan at 1 μM, PDGFRA. The conditions noted are these: 1000 nM, read-out: Percent Control. In kind it is binding.
Description: as §2

Assay [25] has as its target T25, CSNK1G3 (Homo sapiens, UniProt Q9Y6M4).
T25 construct: purchased Eurofins DiscoverX KINOMEscan
Kind of assay: KINOMEscan at 1 μM, CSNK1G3. Format: binding. The conditions noted are these: 1000 nM, read-out: Percent Control.
Description: as §2

Assay [26] concerns the target T26, LIMK1 (Homo sapiens, UniProt P53667).
T26 construct: purchased Eurofins DiscoverX KINOMEscan
Kind of assay: KINOMEscan at 1 μM, LIMK1. In kind it is binding. The conditions noted are these: 1000 nM, read-out: Percent Control.
Description: as §2

For assay [27], the target named is T27, MET(Y1235D) (Homo sapiens, UniProt P08581, Y1235D).
T27 construct: purchased Eurofins DiscoverX KINOMEscan
The experiment in a line: KINOMEscan at 1 μM, MET(Y1235D). The conditions noted are these: 1000 nM, read-out: Percent Control. Format: binding.
Description: as §2

The target in assay [28] is T28, WNK4 (Homo sapiens, UniProt Q96J92).
T28 construct: purchased Eurofins DiscoverX KINOMEscan
T28 sequence (Q96J92 whole entry): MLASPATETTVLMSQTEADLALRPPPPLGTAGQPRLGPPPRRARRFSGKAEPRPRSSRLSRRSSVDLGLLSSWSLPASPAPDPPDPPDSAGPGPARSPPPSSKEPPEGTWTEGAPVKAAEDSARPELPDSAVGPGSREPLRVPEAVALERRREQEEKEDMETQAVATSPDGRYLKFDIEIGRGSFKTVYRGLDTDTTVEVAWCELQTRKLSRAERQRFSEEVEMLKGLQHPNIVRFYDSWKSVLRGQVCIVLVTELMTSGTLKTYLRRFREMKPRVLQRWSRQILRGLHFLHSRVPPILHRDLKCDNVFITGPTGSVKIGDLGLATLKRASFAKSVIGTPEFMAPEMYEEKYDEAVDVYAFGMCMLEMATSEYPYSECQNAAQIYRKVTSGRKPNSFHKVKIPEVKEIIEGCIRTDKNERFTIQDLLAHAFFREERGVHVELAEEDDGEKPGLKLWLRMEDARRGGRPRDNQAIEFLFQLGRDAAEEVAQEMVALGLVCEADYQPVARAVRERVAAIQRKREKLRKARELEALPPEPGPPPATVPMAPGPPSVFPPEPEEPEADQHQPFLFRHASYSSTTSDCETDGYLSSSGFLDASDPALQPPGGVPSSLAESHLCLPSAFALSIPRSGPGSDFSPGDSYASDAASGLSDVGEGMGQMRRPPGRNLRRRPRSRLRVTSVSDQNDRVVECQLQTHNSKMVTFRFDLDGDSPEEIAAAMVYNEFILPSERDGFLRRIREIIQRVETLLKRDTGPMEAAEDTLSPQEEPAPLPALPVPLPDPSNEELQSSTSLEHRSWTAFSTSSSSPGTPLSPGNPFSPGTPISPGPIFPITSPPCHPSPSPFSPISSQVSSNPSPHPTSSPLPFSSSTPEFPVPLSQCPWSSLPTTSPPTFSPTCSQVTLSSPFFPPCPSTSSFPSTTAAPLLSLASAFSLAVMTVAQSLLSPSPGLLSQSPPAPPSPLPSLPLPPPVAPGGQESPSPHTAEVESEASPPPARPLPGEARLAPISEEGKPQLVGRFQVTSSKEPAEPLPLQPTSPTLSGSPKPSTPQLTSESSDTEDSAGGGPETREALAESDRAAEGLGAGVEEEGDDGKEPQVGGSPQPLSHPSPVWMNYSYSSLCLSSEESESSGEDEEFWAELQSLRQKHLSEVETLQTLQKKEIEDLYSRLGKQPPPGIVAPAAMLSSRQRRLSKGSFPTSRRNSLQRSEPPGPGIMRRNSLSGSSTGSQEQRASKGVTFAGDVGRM
The experiment in a line: KINOMEscan at 1 μM, WNK4. In kind it is binding. The conditions noted are these: 1000 nM, read-out: Percent Control.
Description: as §2

Assay [29] has as its target T29, DYRK1B (Homo sapiens, UniProt Q9Y463).
T29 construct: purchased Eurofins DiscoverX KINOMEscan
The experiment in a line: KINOMEscan at 1 μM, DYRK1B. The conditions noted are these: 1000 nM, read-out: Percent Control. Format: binding.
Description: as §2

In assay [30] the target is T30, RSK1(Kin.Dom.2-C-terminal) (Homo sapiens, UniProt Q15418).
T30 construct: RSK1(Kin.Dom.2-C-terminal); purchased Eurofins DiscoverX KINOMEscan
T30 sequence (Q15418 392-735 limits assumed): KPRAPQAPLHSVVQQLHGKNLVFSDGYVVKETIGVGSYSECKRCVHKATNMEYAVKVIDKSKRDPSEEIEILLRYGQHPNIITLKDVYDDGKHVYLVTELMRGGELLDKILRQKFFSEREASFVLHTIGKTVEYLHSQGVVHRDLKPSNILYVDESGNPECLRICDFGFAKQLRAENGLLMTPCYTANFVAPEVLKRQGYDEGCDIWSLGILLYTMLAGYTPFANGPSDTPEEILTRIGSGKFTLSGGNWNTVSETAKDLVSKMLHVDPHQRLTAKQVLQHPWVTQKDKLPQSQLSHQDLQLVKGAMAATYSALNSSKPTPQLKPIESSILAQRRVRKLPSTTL
Kind of assay: KINOMEscan at 1 μM, RSK1(Kin.Dom.2-C-terminal). Format: binding. The conditions noted are these: 1000 nM, read-out: Percent Control.
Description: as §2

Assay [31] concerns the target T31, DYRK2 (Homo sapiens, UniProt Q92630).
T31 construct: purchased Eurofins DiscoverX KINOMEscan
Kind of assay: KINOMEscan at 1 μM, DYRK2. Format: binding. The following applies: 1000 nM, read-out: Percent Control.
Description: as §2

Assay [32] addresses T18, SIK. Kind of assay: KINOMEscan binding assay at 1 μM, SIK. The following applies: Compound Concentration 1000 nM; read-out: Percent Control.
Description: as §2

T13 sequence (P45985 whole entry): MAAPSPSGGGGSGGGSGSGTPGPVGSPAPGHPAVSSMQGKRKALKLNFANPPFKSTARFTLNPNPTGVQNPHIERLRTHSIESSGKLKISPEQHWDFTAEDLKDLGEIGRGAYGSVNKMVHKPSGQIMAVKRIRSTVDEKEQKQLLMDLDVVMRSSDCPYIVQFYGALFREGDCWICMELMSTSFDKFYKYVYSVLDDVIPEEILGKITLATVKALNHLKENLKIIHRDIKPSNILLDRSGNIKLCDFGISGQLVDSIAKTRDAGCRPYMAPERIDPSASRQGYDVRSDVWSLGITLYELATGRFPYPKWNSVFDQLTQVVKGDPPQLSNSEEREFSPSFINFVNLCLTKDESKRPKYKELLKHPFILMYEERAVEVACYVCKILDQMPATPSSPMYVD
T12 sequence (P10721 26-976): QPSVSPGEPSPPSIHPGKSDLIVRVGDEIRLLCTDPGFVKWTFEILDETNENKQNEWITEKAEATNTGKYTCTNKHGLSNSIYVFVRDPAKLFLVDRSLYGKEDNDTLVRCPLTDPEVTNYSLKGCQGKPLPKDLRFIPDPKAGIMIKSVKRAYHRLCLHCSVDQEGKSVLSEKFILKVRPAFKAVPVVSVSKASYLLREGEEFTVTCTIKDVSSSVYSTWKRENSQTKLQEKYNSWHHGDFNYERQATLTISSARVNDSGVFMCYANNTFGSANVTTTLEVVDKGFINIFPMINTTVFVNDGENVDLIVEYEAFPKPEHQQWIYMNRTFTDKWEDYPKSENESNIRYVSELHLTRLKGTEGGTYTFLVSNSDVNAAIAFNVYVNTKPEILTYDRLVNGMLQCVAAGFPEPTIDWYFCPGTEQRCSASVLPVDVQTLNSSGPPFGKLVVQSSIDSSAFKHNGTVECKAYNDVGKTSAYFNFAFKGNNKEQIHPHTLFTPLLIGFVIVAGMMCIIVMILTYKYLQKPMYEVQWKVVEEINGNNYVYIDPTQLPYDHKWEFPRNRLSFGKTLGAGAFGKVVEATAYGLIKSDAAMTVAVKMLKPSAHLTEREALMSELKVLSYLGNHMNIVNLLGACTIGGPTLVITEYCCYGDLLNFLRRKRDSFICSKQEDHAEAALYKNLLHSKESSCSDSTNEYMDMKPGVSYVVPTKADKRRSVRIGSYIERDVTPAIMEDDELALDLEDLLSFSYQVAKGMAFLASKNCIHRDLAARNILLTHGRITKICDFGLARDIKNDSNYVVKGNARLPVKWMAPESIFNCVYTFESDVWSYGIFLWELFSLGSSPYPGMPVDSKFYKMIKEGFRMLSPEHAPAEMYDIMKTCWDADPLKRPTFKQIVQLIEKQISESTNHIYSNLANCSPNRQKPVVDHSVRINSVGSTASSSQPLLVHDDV

Take `Cc1cccc(-c2cnc3occ(-c4ccc(C(=O)O)c(C5CCCC5)c4)c3c2)c1` [SGC-CAMKK2-1 (YL-36)]: the remaining binding at 1 µM in [1] came to 77%; in [2] it was 77%; in assay [3], 85%; in assay [4], 91%; in assay [5], 93%; in [6] it was 93%. The remaining binding at 1 µM came to 95% in [7]; 100% in [8]; 100% in assay [9]; 100% in [10]; 100% in assay [11]; 100% in [12]. Besides, the remaining binding at 1 µM in [13], in [14], in [15], in assay [16], in [17] and in assay [18] was 100% in each case. The remaining binding at 1 µM in assay [19] and in assay [20] was 100% each time.
Consider `O=C(O)c1ccc(-c2coc3ncc(-c4ccccc4)cc23)cc1Cl` [SGC-CAMKK2-1N (UNC-YL-83)], for which the remaining binding at 1 µM in [21] amounted to 54%; in [22], 71%; in [23] it was 73%; in assay [24], 74%; in [25], 76%; in assay [26] it was 88%. Further, the remaining binding at 1 µM in [27] was 91%; in [28], 93%; in assay [29] it was 94%; in assay [30] it was 94%; in [31], 100%; in assay [32], 100%.
